Results reported in patent US12029791B2, “Therapeutic conjugates” (Totus Medicines Inc., priority 2019, dated 2024).

The compounds below were run on PI3-kinase (assay: NanoBRET screening of ARCS for covalent binding in transfected HEK293 cells). Conditions: HEK293 cells transfected with NanoLuc-target fusion, overnight incubation, washout.
Design: species or system Human
Procedure: Human embryonic kidney 293-H (HEK 293, Gibco 293-H, #11631017) cell lines are maintained in Dulbecco's Modified Eagle Medium, high glucose, pyruvate (DMEM, Gibco, #11995065) supplemented with 10% fetal bovine serum (FBS, Gibco, #10082147) and 1× penicillin-streptomycin (100× solution, Gibco, #15140148) at 37° C. and 5% CO2 in a water-saturated incubator. Cell are trypsinized using 0.05% or 0.25% Trypsin-EDTA solution (Trypsin-EDTA, phenol red, Gibco, #25200056 (0.25%) or #25300054). Opti-MEM media supplemented with 10% fetal bovine serum (Opti-MEM I reduced serum media, no phenol red, Gibco, #11058021) is used for culturing cells overnight for NanoBRET readout experiments.
HEK293 cells are cultivated appropriately prior to assay. The medium from cell flask is removed via aspiration, washed 1× with PBS followed by aspiration, trypsinized, and cells are allowed to dissociate from the flask. Trypsin is neutralized using growth medium and cells are pelleted via centrifugation at 200×g for 5 minutes. The medium is aspirated and the cells are resuspended into a single cell suspension using Opti-MEM I supplemented with 10% FBS. The cell density is adjusted to 2×10^5/mL in Opti-MEM I supplemented with 10% FBS in a sterile, conical tube. The cells are transfected and aliquoted directly in a 96-well plate for the NanoBRET assay the next day, and therefore, the cells are cultured overnight in Opti-MEM. The cells are also transfected in bulk and dispensed into a 96-well plate to allow cells to adhere to the plate overnight, thereby enabling washout studies.
The lipid:DNA complexes are prepared as follows:
A 10 μg/mL solution of DNA is prepared in Opti-MEM without serum. This solution contains the following ratios of carrier DNA and DNA encoding NanoLuc fused to the biological target. Serial dilution steps may be warranted to accurately dilute the NanoLuc fusion DNA. Added, in order, the following reagents to a sterile polystyrene test tube: 1 mL of Opti-MEM without phenol red; 9.0 μg/mL of carrier DNA; 1.0 μg/mL of NanoLuc fusion DNA (for some targets, the amount is less). The reagents are mixed thoroughly.
30 μL of FuGENE HD is added into each mL of DNA mixture to form lipid:DNA complex. […] It is mixed by pipetting up and down 5-10 times and incubated at room temperature for 20 minutes to allow complexes to form. 1 part (e.g. 1 mL) of lipid:DNA complex is mixed with 20 parts (e.g. 20 mL) of HEK293 cells in suspension at 2×10^5/mL and mixed gently by pipetting up and down 5 times in a sterile, conical tube. Larger or smaller bulk transfections are scaled accordingly, using this ratio. 100 μL cells+lipid:DNA complex is dispensed into a sterile, tissue-culture treated 96-well plate (20,000 cells/well), and incubated at least 16 hours to allow expression. The cells are incubated in a 37° C.+5% CO2 incubator for >16 hrs. A serially diluted inhibitor or test compound is prepared at 100× final concentration in 100% DMSO. The serially diluted inhibitor stock is prepared in PCR plates. 1 μL per well of 100× serially diluted inhibitor/test compound is added to the cells in 96-well plates that have been transiently transfected overnight and mixed by tapping the plate by hand. The plate is incubated at 37° C.+5% CO2 incubator overnight. A 1× solution of substrate mix (500× stock) and appropriate concentration of tracer is prepared in Opti-Mem. The cells are washed by setting a plate washer to the 96 well plate 5× in PBS pH 7.4 by adding 200 μL PBS each time. The cells are incubated at 37° C. for 2 hours. 100 μL of the 1× Substrate-Tracer solution is added and the 96 well plate is gently tapped to mix. The plate on plate reader is read every hour for the next 6 hours. The binding assays of some ARCS are shown below. Compound 1-XXXII formed a covalent bond with PI3-kinase from about 5% to 20%. ARCS selected from the group consisting of Compounds 1-101, 1-102, 1-113, 1-114, 1-119, 1-120, 1-125 and 1-126 formed a covalent bond with PI3-kinase from about 80% to 100%. […]

Row | SMILES | Binding (Percent inhibition)
1 | C=CC(=O)Nc1ccc(C(=O)N2CCN(Cc3cc4c(N5CCOCC5)nc(-c5cnc(NC(=O)OC)cc5C(F)(F)F)nn4c3)CC2)cc1 [Compound 1-171] | ++ (50-80%)
2 | CC#CC(=O)NCC(=O)N1CCN(Cc2cc3c(N4CCOCC4)nc(-c4cnc(NC(=O)OC)cc4C(F)(F)F)nn3c2)CC1 [Compound 1-126] | +++ (>80%)
3 | COC(=O)Nc1cc(C(F)(F)F)c(-c2nc(N3CCOCC3)c3cc(CN4CCN(C(=O)CCC(=O)/C=C/CN(C)C)CC4)cn3n2)cn1 [Compound 1-119] | +++ (>80%)
4 | COC(=O)Nc1cc(C(F)(F)F)c(-c2nc(N3CCOCC3)c3cc(CN4CCN(C(=O)CCC(=O)C=C(C)C)CC4)cn3n2)cn1 [Compound 1-113] | +++ (>80%)
5 | COC(=O)Nc1cc(C(F)(F)F)c(-c2nc(N3CCOCC3)c3cc(CN4CCNCC4)cn3n2)cn1 [Compound 1-XXXII] | + (<20%)
6 | COC(=O)Nc1cc(C(F)(F)F)c(-c2nc(N3CCOCC3)c3cc(CN4CCN(C(=O)CNC(=O)C=C(C)C)CC4)cn3n2)cn1 [Compound 1-114] | +++ (>80%)
7 | COC(=O)Nc1cc(C(F)(F)F)c(-c2nc(N3CCOCC3)c3cc(CN4CCN(C(=O)CNC(=O)/C=C/CN(C)C)CC4)cn3n2)cn1 [Compound 1-120] | +++ (>80%)
8 | CC#CC(=O)CCC(=O)N1CCN(Cc2cc3c(N4CCOCC4)nc(-c4cnc(NC(=O)OC)cc4C(F)(F)F)nn3c2)CC1 [Compound 1-125] | +++ (>80%)
9 | C=CC(=O)Nc1ccc(CCNCc2cc3c(N4CCOCC4)nc(-c4cnc(NC(=O)OC)cc4C(F)(F)F)nn3c2)cc1 [Compound 1-172] | ++ (50-80%)
10 | C=CC(=O)CCC(=O)N1CCN(Cc2cc3c(N4CCOCC4)nc(-c4cnc(NC(=O)OC)cc4C(F)(F)F)nn3c2)CC1 [Compound 1-101] | +++ (>80%)
11 | C=CC(=O)NCC(=O)N1CCN(Cc2cc3c(N4CCOCC4)nc(-c4cnc(NC(=O)OC)cc4C(F)(F)F)nn3c2)CC1 [Compound 1-102] | +++ (>80%)
